Patent US20250230193A1, “CYCLIC COMPOUND HAVING SELECTIVE KRAS INHIBITORY EFFECT ON HRAS AND NRAS” (CHUGAI SEIYAKU KABUSHIKI KAISHA, priority 2022, published 2025)
Where a SMILES comes first, the peptide text is derived from it. Bridges are numbered along the chain shown (N, C = ends). [ ]: non-standard residue; d: D form. The star is where a group is joined. hPhe(3-Cl-4-CF3) = N[C@@H](CCc1ccc(C(F)(F)F)c(Cl)c1)C(=O)O; NPrPhe(4-CF3) = CCCN[C@@H](Cc1ccc(C(F)(F)F)cc1)C(=O)O; NMeGly(cPent) = CN[C@H](C(=O)O)C1CCCC1; Pro(4,4-F2) = O=C(O)[C@@H]1CC(F)(F)CN1; NMeD = CN[C@@H](CC(=O)O)C(=O)O; NMeL = CN[C@@H](CC(C)C)C(=O)O; Morpholide = C1CN(*)CCO1; Ac5c = NC1(C(=O)O)CCCC1; Aze = O=C(O)[C@@H]1CCN1; NcPrGly = O=C(O)CNC1CC1; Sar = CNCC(=O)O

Legend:
[1] = target: GDP-bound NRAS wild-type protein (Homo sapiens, UniProt P01111); assay: Binding to NRAS by surface plasmon resonance (SPR), Single Cycle Kinetics; settings: for NRAS/KRAS (ratio of KD value with respect to NRAS to KD value with respect to KRAS): GDP-bound NRAS wild-type vs GDP-bound KRAS wild-type
GDP-bound NRAS wild-type protein, sequence (P01111 whole entry): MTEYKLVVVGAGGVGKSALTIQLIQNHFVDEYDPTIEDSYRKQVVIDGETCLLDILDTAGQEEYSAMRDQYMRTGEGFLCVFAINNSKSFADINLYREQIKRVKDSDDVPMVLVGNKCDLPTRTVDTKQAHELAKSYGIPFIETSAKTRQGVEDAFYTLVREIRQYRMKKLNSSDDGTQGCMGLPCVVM

[2] = target: GDP-bound HRAS wild-type protein (Homo sapiens, UniProt P01112); assay: Binding to HRAS by surface plasmon resonance (SPR), Single Cycle Kinetics; settings: for HRAS/KRAS (ratio of KD value with respect to HRAS to KD value with respect to KRAS): GDP-bound HRAS wild-type vs GDP-bound KRAS wild-type
GDP-bound HRAS wild-type protein, sequence (P01112 whole entry): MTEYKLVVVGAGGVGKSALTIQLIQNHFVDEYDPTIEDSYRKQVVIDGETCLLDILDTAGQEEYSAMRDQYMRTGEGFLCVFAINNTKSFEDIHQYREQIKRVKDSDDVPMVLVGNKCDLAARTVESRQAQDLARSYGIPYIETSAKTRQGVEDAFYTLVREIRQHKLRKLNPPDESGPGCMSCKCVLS

CCCN1C(=O)[C@@H]2CCN2C(=O)CN(C2CC2)C(=O)[C@H]([C@@H](C)CC)NC(=O)[C@H](CC(C)C)N(C)C(=O)C[C@@H](C(=O)N2CCOCC2)N(C)C(=O)[C@H](C2CCCC2)N(C)C(=O)C2(CCCC2)NC(=O)[C@@H]2CCCN2C(=O)[C@H](CCc2ccc(C(F)(F)F)c(Cl)c2)NC(=O)CN(C)C(=O)[C@@H]1Cc1ccc(C(F)(F)F)cc1 [PP0273] ([NMeL]I[NcPrGly][Aze][NPrPhe(4-CF3)][Sar][hPhe(3-Cl-4-CF3)]P[Ac5c][NMeGly(cPent)][NMeD]-Morpholide; lactam N-11) was tested, and the “NRAS/KRAS (ratio of KD for GDP-bound NRAS wild-type to KD for KRAS)” value ([1]; SPR) was “C (A compound having a KD ratio of 0.1 or more and less than 3 is denoted as C)” and the “HRAS/KRAS (ratio of KD for GDP-bound HRAS wild-type to KD for KRAS)” value ([2]; SPR) was “B (a compound having 3 or more and less than 10 is denoted as B)”.

In the case of CCC[C@H]1C(=O)N[C@@H]([C@@H](C)CC)C(=O)N(C)CC(=O)N(C)[C@H]2C/C=C\CCN(C2=O)[C@@H](Cc2ccc(C(F)(F)F)cc2)C(=O)N(C)CC(=O)N[C@@H](CCc2ccc(Cl)c(Cl)c2)C(=O)N2CCOC[C@H]2C(=O)NC2(CC(C)(C)C2)C(=O)N(C)[C@@H](C(CC)CC)C(=O)N(C)[C@H](C(=O)N(C)C)CC(=O)N1C [PP2920], the “NRAS/KRAS (ratio of KD value with respect to GDP-bound NRAS wild-type protein to KD value with respect to KRAS)” value ([1]; class symbols) is reported as “AA (a compound having 20 or more is denoted as AA)” and the “HRAS/KRAS (ratio of KD value with respect to GDP-bound HRAS wild-type protein to KD value with respect to KRAS)” value ([2]; class symbols) is reported as “A (a compound having 10 or more and less than 20 is denoted as A)”.

For CCO[C@@H]1C[C@H]2C(=O)NC3(CC(C)(C)C3)C(=O)N(C)[C@@H](C3CCCC3)C(=O)N(C)[C@H](C(=O)N(C)C)CC(=O)N(C)[C@@H](COC)C(=O)N[C@@H]([C@@H](C)CC)C(=O)N(C3CC3)CC(=O)N(C)[C@H]3C/C=C\CCN(C3=O)[C@@H](CC3CCCCC3)C(=O)N(C)CC(=O)N[C@@H](CCc3cc(F)c(C(F)(F)F)c(F)c3)C(=O)N2C1 [PP2562], the “NRAS/KRAS (ratio of KD value with respect to GDP-bound NRAS wild-type protein to KD value with respect to KRAS)” value ([1]; class symbols) was “B (a compound having 3 or more and less than 10 is denoted as B)” and the “HRAS/KRAS (ratio of KD value with respect to GDP-bound HRAS wild-type protein to KD value with respect to KRAS)” value ([2]; class symbols) was “B (a compound having 3 or more and less than 10 is denoted as B)”.

In the case of C#CC[C@H]1C(=O)N[C@@H]([C@@H](C)CC)C(=O)N(C)CC(=O)N(C)[C@H]2C/C=C\CCN(C2=O)[C@@H](Cc2ccc(C(F)(F)F)cc2)C(=O)N(C)CC(=O)N[C@@H](CCc2ccc(C(F)(F)F)c(OC)c2)C(=O)N2C[C@@H](C)C[C@H]2C(=O)NC2(CCC2)C(=O)N(C)[C@@H](C2CCCC2)C(=O)N(C)[C@H](C(=O)N(C)CCC)CC(=O)N1C [PP2063], the “NRAS/KRAS (ratio of KD value with respect to NRAS to KD value with respect to KRAS)” value ([1]; SPR) is reported as “AA (a compound having 20 or more is denoted as AA)” and the “HRAS/KRAS (ratio of KD value with respect to HRAS to KD value with respect to KRAS)” value ([2]; SPR) is reported as “A (a compound having 10 or more and less than 20 is denoted as A)”.

CCC[C@H]1C(=O)N[C@@H]([C@H](C)CC)C(=O)N(C)CC(=O)N(C)[C@H]2C/C=C\CCN(C2=O)[C@@H](Cc2ccc(C)cc2)C(=O)N(C)CC(=O)N[C@@H](CCc2ccc(C(F)(F)F)c(Cl)c2)C(=O)N2C[C@H](OCC)C[C@H]2C(=O)NC2(CC(C)(C)C2)C(=O)N(C)[C@@H](CC(C)(C)C)C(=O)N(C)[C@H](C(=O)N(C)C)CC(=O)N1C [PP2219] was tested, and the “NRAS/KRAS (ratio of KD value with respect to NRAS to KD value with respect to KRAS)” value ([1]; SPR) was “A (a compound having 10 or more and less than 20 is denoted as A)” and the “HRAS/KRAS (ratio of KD value with respect to HRAS to KD value with respect to KRAS)” value ([2]; SPR) was “A (a compound having 10 or more and less than 20 is denoted as A)”.

In the case of CC[C@H](C)[C@@H]1NC(=O)[C@H](CC(C)C)NC(=O)C[C@@H](C(=O)N2CCOCC2)N(C)C(=O)[C@H](C2CCCC2)N(C)C(=O)C2(CCCC2)NC(=O)[C@@H]2CCCN2C(=O)[C@H](CCc2cc(F)c(C(F)(F)F)c(F)c2)NC(=O)CN(C)C(=O)[C@H](Cc2ccc(C(F)(F)F)cc2)N2CCCC[C@@H](C2=O)N(C)C(=O)CN(C)C1=O [PP0590], the “NRAS/KRAS (ratio of KD value with respect to GDP-bound NRAS wild-type protein to KD value with respect to KRAS)” value ([1]; SPR) is reported as “C (A compound having a KD ratio of 0.1 or more and less than 3 is denoted as C)” and the “HRAS/KRAS (ratio of KD value with respect to GDP-bound HRAS wild-type protein to KD value with respect to KRAS)” value ([2]; SPR) is reported as “B (a compound having 3 or more and less than 10 is denoted as B)”.

CCCN1C(=O)CN(C)C(=O)CNC(=O)[C@H]([C@@H](C)CC)NC(=O)[C@H](CC(C)C)N(C)C(=O)C[C@@H](C(=O)N(C)C)NC(=O)[C@H](C2CCCC2)N(C)C(=O)C2(CCCC2)NC(=O)[C@@H]2CC(F)(F)CN2C(=O)[C@H](CCc2ccc(C(F)(F)F)c(Cl)c2)NC(=O)CN(C)C(=O)[C@@H]1Cc1ccc(C(F)(F)F)cc1 [PP0363] ([NMeL]IG[Sar][NPrPhe(4-CF3)][Sar][hPhe(3-Cl-4-CF3)][Pro(4,4-F2)][Ac5c][NMeGly(cPent)]D-NMe2; lactam N-11) was tested, and the “NRAS/KRAS (ratio of KD for GDP-bound NRAS wild-type to KD for KRAS)” value ([1]; SPR) was “B (a compound having 3 or more and less than 10 is denoted as B)” and the “HRAS/KRAS (ratio of KD for GDP-bound HRAS wild-type to KD for KRAS)” value ([2]; SPR) was “C (A compound having a KD ratio of 0.1 or more and less than 3 is denoted as C)”.
